Experiments:
[1] = system: murine urinary immunoglobulins; experiment: Binding of murine urinary immunoglobulins, direct binding ELISA; parameters: species or system mice; conditions: pooled urine
Method: (§1) Wells were coated with 10 μg/ml of the peptides, blocked with 1% BSA (bovine serum albumin) in PBS (pH 7,4), reacted with appropriately diluted serum or urine samples or monoclonal antibodies, incubated with anti-human or anti-mouse immunoglobulin enzyme conjugated to alkaline phosphatase and detected by addition of substrate (Sigma 100 Phosphatase Substrate Tablets) and color development using an Organon Teknika Microwell System spectrometer at wavelength of 405 nm.
Thus, pooled urine from at least 5 mice (either MRL/1pr/1pr or control mice, e.g. BALB/c) was added to wells coated with R38' (5200), R18 or DNA as described above and bound 5200 assayed by ELISA.
Binding of Murine Urinary Immunoglobulins To 5200
Each group is comprised of pooled urine.

[2] = system: C72 murine anti-DNA antibody; experiment: Competitive inhibition of C72 binding to 5200, ELISA; conditions: antibody incubated with inhibitor before ELISA
Method: Competitive Inhibition Assays:
In competitive inhibition assays, the antibodies were incubated with various concentrations of the inhibitor (for example: peptide, DNA, heparin) or with DNase for 45 minutes at room temperature and the remaining binding was then evaluated by ELISA as described heretofore.
% inhibition was computed as
O.D. binding without inhibitor-O.D. binding with inhibitor×100=%
inhibition O.D. binding without inhibitor
The binding of C72 to 5200 was tested before and after incubation with 5200, R38, R18, Heparin, DNA and DNase. […] The percent inhibition is the percent reduction of the O.D. after incubation with the inhibiting agent.

[3] = system: C72 murine anti-DNA antibody; experiment: Direct binding ELISA of C72 to laminin peptides; conditions: for binding of C72 murine anti-DNA antibody to peptide (FIG. 1): C72 conditioned medium in various dilutions in PBS; for C72 Binding: O.D. in a direct binding ELISA test after one (1) hour
Method: The C72 murine anti-DNA antibody has been derived from (NZBxNZW)F1 lupus mice by the hybridoma technique as described in Eilat D. et al J. Immunol. (1991) 147 361-368. The monoclonal anti-DNA antibodies DIL6 and B3 were derived from lupus patients by hybridoma technique as described in Ehrenstein M. R. et al J. Clin. Invest. (1994) 93 1787-1799 and Ehrenstein M. R. et al Kidney Inter. (1995) 48 705-711.
Anti-Peptide (Direct Binding) ELISA:
as §1
The interaction of the C72 murine anti-DNA antibody with laminin peptides was analyzed by ELISA as described above. The C72 conditioned medium was diluted in PBS in various dilutions.
The peptides of the present invention were tested for their ability to bind directly with C72 murine anti-DNA antibodies and B3 human anti-DNA antibodies according to the methods described hereinabove.

Row | Binding of murine urinary immunoglobulins to antigen ([1]; BALB/c mice) | Binding of murine urinary immunoglobulins to antigen ([1]; MRL/lpr/lpr mice) | inhibition of the binding of C72 to 5200 (FIG. 2) [2] | binding of C72 murine anti-DNA antibody to peptide (FIG. 1) [3] | C72 Binding [3] | Substance
1 | U.D. | U.D. | inhibition |  |  | DNA [reference compound]
2 |  |  | not |  |  | DNase
3 |  |  |  | binding | 0.75 O.D. | KONCLSSRASFRGCVRNLRLSR (PHTHSTSADTNDPIYVGGYPAH; UniProt P19137 3011-3032, looked up, fragment) [Peptide R30, mouse laminin α chain residues 3011-3032]
4 | U.D. | U.D. |  | not | 0.01 O.D. | RPVRHAQCRVCDGNSTNPRERH [Peptide R18, peptide from the N-terminal of mouse laminin α chain, residues 42-63]
5 |  |  | inhibition |  |  | heparin

Source: US6228363A, “Peptides for the treatment of systemic lupus erythematosus” (Hadasit Medical Research Services & Development Company Ltd., priority 1997, dated 2001)
